Tests used:
Trp-1 = assay: Expression of Trp-1 by Western blotting; assay type: cell-based; settings: 5 μM, 72-hour culture, human normal melanocytes
Description: (§1) A cell suspension of human normal melanocytes (from Kurabo Industries Ltd.) in a medium for culturing melanocytes (Medium 254, from Kurabo Industries Ltd.) was prepared at 7×10^4 cells/mL and inoculated into φ10-cm culture petri dishes in an amount of 10 mL per dish, and the cells were cultured in a CO2 incubator (37° C., 5% CO2). The next day, the medium was removed, and a medium for culturing melanocytes containing 2 μM or 5 μM Compound (1) or a medium for culturing melanocytes (control) was added in an amount of 10 mL per dish, followed by culture in a CO2 incubator for 72 hours. After 72-hour culture, the medium was removed, and the cells were washed with phosphate buffered saline (PBS) and collected using a cell scraper. A protein extraction solution (0.1% NP-40, 0.01% SDS, 10 mM sodium phosphate buffer (pH 6.8), protease inhibitor) was added to the cell pellets to suspend the cells, and the suspension was shaken at 4° C. for 1 hour. The resultant was centrifuged at 4° C. and 15,000 rpm for 10 minutes, and the supernatant was collected and used as a crude protein extract. […]
(§2) The membrane was washed with TPBS, and proteins were detected using an ECL Plus western blotting detection system. […]

[1] = target: T1, tyrosinase extracted from normal human melanocytes (Homo sapiens, UniProt P14679); assay: Normal human melanocytes tyrosinase activity inhibition test (dopa-oxidizing activity); assay type: biochemical; settings: for Dopa-oxidizing activity: control defined as 100%, 10 minutes at 37° C.; for action on the activity of tyrosinase: 1 to 100 μM
T1 construct: to thereby produce a protein solution, which was used as a crude tyrosinase protein solution; host or cells: human normal melanocytes; extract made with a Subcellular Proteome Extraction Kit (Calbiochem)
T1 sequence (P14679 19-529): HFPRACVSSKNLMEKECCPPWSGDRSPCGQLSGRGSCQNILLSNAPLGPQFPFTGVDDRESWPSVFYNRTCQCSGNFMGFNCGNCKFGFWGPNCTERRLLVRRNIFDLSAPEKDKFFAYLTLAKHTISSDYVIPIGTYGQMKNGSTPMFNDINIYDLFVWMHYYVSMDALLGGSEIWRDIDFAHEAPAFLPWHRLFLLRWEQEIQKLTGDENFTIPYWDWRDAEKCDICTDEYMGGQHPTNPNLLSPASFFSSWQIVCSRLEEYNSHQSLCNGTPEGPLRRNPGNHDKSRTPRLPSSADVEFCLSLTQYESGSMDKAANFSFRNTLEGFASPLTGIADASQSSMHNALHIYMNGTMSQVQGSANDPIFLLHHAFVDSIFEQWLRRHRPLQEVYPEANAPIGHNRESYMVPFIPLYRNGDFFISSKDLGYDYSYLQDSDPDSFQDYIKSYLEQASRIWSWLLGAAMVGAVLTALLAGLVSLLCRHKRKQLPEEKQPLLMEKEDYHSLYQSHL
Description: Human normal melanocytes (from Kurabo Industries Ltd.), cultured in a medium for culturing melanocytes (Medium 254, from Kurabo Industries Ltd.), were collected using a cell scraper, and extraction was performed for the cells using PreteoExtract™ Subcellular Proteome Extraction Kit (Calbiochem), to thereby produce a protein solution, which was used as a crude tyrosinase protein solution. The dopa-oxidizing activity of the tyrosinase protein solution was measured to evaluate the tyrosinase activity-inhibiting action of Compound (1).
A 0.1% dopa solution, serving as a substrate, was prepared by dissolving L-β-(3,4-dihydroxyphenyl)alanine (L-DOPA) in 10 mM sodium phosphate buffer (pH 6.8) at a concentration of 0.1 (w/v) %. A crude tyrosinase protein solution, prepared to 1 to 5 μg/80 μL, was fed into a 96-well plate in an amount of 80 μL per well, and solutions of 10 μM, 100 μM, and 1,000 μM Compound (1) in DMSO were separately added to three wells each in an amount of 20 μL per well. Meanwhile, as positive controls, solutions of 10 μM, 100 μM, and 1,000 μM phenylthiourea, known as a tyrosinase activity inhibitor, in DMSO were separately added in the same way as above to different three wells each in an amount of 20 μL per well. In addition, as a control, DMSO was added to another different three wells each in an amount of 20 μL per well. Immediately after 100 μL each of the 0.1% dopa solution was added to the wells each containing the above-described test solution, absorbances at 450 nm were measured using a plate reader and were defined as 0-minute values. The 96-well plate was incubated at 37° C. for 10 minutes in the plate reader, and the absorbances at 450 nm were measured again and defined as 10-minute values. A value calculated by subtracting the 0-minute value from the 10-minute value of each well was defined as a 0→10 minute absorbance change value, and the average of 0→10 minute absorbance change value of control was defined as 100%, followed by measurement of dopa-oxidizing activities in the cases of treatments with various concentrations of test substances.

human normal melanocytes = assay: Melanin formation inhibition test (14C-thiouracil uptake); assay type: cell-based; settings: for Melanin level (%): three days culture, % of control
Description: The melanin formation inhibitory action of Compound (1) was evaluated using thiouracil (in this test, thiouracil labeled with ^14C was used), which is specifically taken into cells in a melanin synthesis process. A complete medium for culturing melanocytes (from Kurabo Industries Ltd.) was added to 15 wells of a 24-well plate in an amount of 2 ml per well, and human normal melanocytes (from Kurabo Industries Ltd.) were inoculated into each well at a concentration of 1.5×10^4 cells/cm^2. The cells were cultured at 37° C. for 24 hours under 5% carbon dioxide atmosphere. Thereafter, in all the wells, the medium was exchanged under the following conditions. That is, a fresh complete medium for culturing melanocytes was added to three wells (control), complete mediums for culturing melanocytes containing Compound (1) at concentrations of 1.0×10^−3 mM, 2.0×10^−3 mM, and 4.0×10^−3 mM were added to three wells each (total: nine wells), and a complete medium for culturing melanocytes containing 0.1 mM phenylthiourea, which is known as a tyrosinase inhibitor, was added to other three wells. In addition, to those 15 wells was added ^14C-thiouracil (thiouracil labeled with ^14C) was added at 0.25×10^−6 Ci (curie). The cells were cultured under the same conditions as above for further three days. After completion of the culture, the culture solution was removed from the wells, and the cells were washed with PBS (phosphate buffered saline) and detached with a medium containing trypsin and EDTA from the bottom of each well to produce cell suspensions, followed by centrifugation to collect the cells. The numbers of the cells were counted using a blood cell counting chamber. Thereafter, the ^14C-thiouracil level in the cells collected from each well was determined using a liquid scintillation counter. The percentage of a radiation dose of the cells cultured in each medium containing a test substance based on a radiation dose of the cells collected from the control wells was calculated to determine a melanin level (%). That is, it is considered that the smaller the radiation dose taken in the cells is, the smaller the melanin level is, resulting in a large melanin inhibition titer.

Trp-2 = assay: Expression of Trp-2 by Western blotting; assay type: cell-based; settings: 5 μM, 72-hour culture, human normal melanocytes
Description: as §1, §2

tyrosinase = assay: Expression of tyrosinase by Western blotting; assay type: cell-based; settings: 5 μM, 72-hour culture, human normal melanocytes
Description: as §1, §2

In the case of `CC(C)(C)c1cc(C(=O)c2cccs2)cc(C(C)(C)C)c1O` [Compound (1), 2,6-di-tert-butyl-4-(2′-thenoyl)phenol], the “expression level of Trp-1” value (Trp-1) is reported as “did not affect”, the Dopa-oxidizing activity ([1]; 1 μM added substance) is reported as 103.55 ± 1.34% and the Dopa-oxidizing activity ([1]; 10 μM added substance) is reported as 102.52 ± 3.68%. The Dopa-oxidizing activity ([1]; 100 μM added substance) was 102.52 ± 2.19%, the “action on the activity of tyrosinase” value [1] was “did not inhibit the activity of tyrosinase” and the “melanin formation inhibitory action” value (human normal melanocytes; 1.0-4.0 × 10^−3 mM) was “concentration-dependent melanin formation inhibitory action”. The “Melanin level (%)” value (human normal melanocytes; 1.0 × 10^−3 mM in medium) was 48.5 ± 2.3%, the “Melanin level (%)” value (human normal melanocytes; 2.0 × 10^−3 mM in medium) was 27.9 ± 0.8% and the “Melanin level (%)” value (human normal melanocytes; 4.0 × 10^−3 mM in medium) was 17.0 ± 0.8%. For the same compound, the “melanin formation inhibition titer relative to phenylthiourea (positive control)” value (human normal melanocytes; Compound (1) 4.0×10^−3 mM versus phenylthiourea 0.1 mM) was ≥ 20 times, the “inhibition of melanin formation” value (human normal melanocytes; cultured cell system of Test Example 1, concentration 25-fold lower than 100 μM) was ≥ 80% and the “expression level of Trp-2” value (Trp-2) was “did not affect”. For the same compound, the “expression level of tyrosinase” value (tyrosinase) was “did not affect”.
`NC(=S)Nc1ccccc1` [Phenylthiourea, phenylthiourea, reference compound] was tested, and the Dopa-oxidizing activity ([1]; 1 μM added substance) was 64.07 ± 1.53%, the Dopa-oxidizing activity ([1]; 10 μM added substance) was 22.52 ± 1.09% and the Dopa-oxidizing activity ([1]; 100 μM added substance) was 4.73 ± 2.07%. The “action on the activity of tyrosinase” value [1] was “had an action of inhibiting the activity of tyrosinase” and the “Melanin level (%)” value (human normal melanocytes; 0.1 mM in medium) was 20.3 ± 3.8%.

— US20090054515A1, “SKIN-WHITENING COSMETIC” (POLA CHEMICAL INDUSTRIES INC., priority 2006, published 2009)
